Laboratory results from publication PMC7144195, “Synthesis, antitumor activity, and molecular docking study of 2-cyclopentyloxyanisole derivatives: mechanistic study of enzyme inhibition” (Journal of Enzyme Inhibition and Medicinal Chemistry, 2020).
Read-outs that look alike come from different tables or passages of the source.

Legend:
PC3 cell line = experiment: In vitro antitumor MTT assay, PC3; format: cell-based
Experimental: (§3) The antitumor activity was performed by using the tetrazolium salt 3-(4,5-dimethyl-2-thiazolyl)-2,5-diphenyl-2H-tetrazolium bromide (MTT) assay in accordance with an established method[39].

HePG2 cell line = experiment: In vitro antitumor MTT assay, HePG2; format: cell-based
Experimental: (§1) The antitumor activity was performed by using the tetrazolium salt 3-(4,5-dimethyl-2-thiazolyl)-2,5-diphenyl-2H-tetrazolium bromide (MTT) assay in accordance with an established method.
(§2) Compounds 3a–c, 4a,b, 5a,b, 6a,b, 7a–e, 8, 9a–c, 10, 11, 12a–c, 13, and 14 were screened for their in vitro antitumor activity by using the standard 3-(4,5-dimethylthiazol-2-yl)-2,5-diphenyltetrazolium bromide (MTT) assay against five human cancers: HePG2, HCT-116, MCF-7, PC3, and HeLa cell lines. […].

HeLa cell line = experiment: In vitro antitumor MTT assay, HeLa; format: cell-based
Experimental: as §1, §2

MCF-7 cell line = experiment: In vitro antitumor MTT assay, MCF-7; format: cell-based
Experimental: as §3

[1] = tested on: HePG2, HCT-116, MCF-7, PC3, and HeLa cell lines; experiment: In vitro antitumor MTT assay, panel of five human cancer cell lines (text summaries); format: cell-based; conditions: read-out: IC50, antitumor activity, range over the tested cancer cell lines
Experimental: as §1, §2

TNF-α = TNF-α inhibition assay (human-specific sandwich ELISA); format: biochemical; conditions: read-out: IC50 (µM) TNFα inhibition
Experimental: The concentration of TNF-α was measured by human-specific sandwich enzyme-linked immunosorbent assay (ELISA) in accordance with the manufacturer’s instructions (no. 589201, Cayman Chemical, Ann Arbour, MI)[43]^,[44].
TNF-α has been reported as a target for cancer treatment; presently, TNF antagonists are under clinical investigation in phase I and II trials as single agents for cancer therapy. […].

HCT-116 cell line = experiment: In vitro antitumor MTT assay, HCT-116; format: cell-based
Experimental: as §3

PDE4B = PDE4B (Homo sapiens, UniProt Q07343); experiment: PDE4B inhibition assay; format: biochemical; conditions: read-out: IC50 (µM) PDE-4B inhibition
Chain of PDE4B (Q07343 whole entry): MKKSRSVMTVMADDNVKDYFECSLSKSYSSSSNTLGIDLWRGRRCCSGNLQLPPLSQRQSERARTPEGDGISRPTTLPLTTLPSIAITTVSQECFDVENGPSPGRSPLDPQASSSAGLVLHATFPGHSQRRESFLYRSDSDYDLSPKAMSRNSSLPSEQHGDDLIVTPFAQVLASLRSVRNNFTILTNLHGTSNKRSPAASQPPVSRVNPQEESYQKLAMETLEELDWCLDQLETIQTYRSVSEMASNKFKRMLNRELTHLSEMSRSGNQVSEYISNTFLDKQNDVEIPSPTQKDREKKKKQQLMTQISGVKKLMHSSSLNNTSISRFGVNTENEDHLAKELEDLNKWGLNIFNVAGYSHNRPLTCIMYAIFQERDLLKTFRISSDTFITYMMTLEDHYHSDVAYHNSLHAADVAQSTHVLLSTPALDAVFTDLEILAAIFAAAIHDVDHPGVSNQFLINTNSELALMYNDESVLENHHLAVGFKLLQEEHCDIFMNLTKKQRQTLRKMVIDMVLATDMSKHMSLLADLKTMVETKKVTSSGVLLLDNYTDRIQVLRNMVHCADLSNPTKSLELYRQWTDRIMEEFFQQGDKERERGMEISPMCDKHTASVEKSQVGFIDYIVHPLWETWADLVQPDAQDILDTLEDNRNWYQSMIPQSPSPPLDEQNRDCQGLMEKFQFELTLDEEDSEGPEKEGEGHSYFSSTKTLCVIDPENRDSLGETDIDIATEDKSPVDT

COX-2 = target: T1, COX-2 (Ovis aries, UniProt P79208); experiment: Colorimetric COX-2 inhibition assay (Cayman kit 560101); format: biochemical; conditions: means of three determinations
T1 construct: purchased Cayman Chemical 560101
T1 sequence (P79208 17-603): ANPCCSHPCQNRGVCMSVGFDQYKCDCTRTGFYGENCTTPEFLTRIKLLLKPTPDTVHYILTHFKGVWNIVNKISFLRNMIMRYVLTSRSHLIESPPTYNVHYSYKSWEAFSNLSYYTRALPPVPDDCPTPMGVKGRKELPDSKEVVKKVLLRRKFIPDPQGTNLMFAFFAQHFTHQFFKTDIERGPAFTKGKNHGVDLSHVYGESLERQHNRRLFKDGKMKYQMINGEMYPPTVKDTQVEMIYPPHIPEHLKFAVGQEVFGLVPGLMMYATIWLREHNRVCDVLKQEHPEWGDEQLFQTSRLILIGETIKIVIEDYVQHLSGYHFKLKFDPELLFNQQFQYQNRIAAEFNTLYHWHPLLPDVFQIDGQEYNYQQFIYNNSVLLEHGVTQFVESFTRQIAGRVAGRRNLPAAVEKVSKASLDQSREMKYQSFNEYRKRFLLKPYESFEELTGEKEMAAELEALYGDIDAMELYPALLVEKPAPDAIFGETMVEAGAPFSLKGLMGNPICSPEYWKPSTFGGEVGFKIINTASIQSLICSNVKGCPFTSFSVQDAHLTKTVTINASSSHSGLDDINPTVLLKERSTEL

[2] = Homo sapiens, PC-3; read-out: IC50 (µM) PC3
[3] = Homo sapiens, HepG2; read-out: IC50 (µM) HePG2
[4] = Homo sapiens; read-out: IC50 (µM) HeLa
[5] = Homo sapiens, MCF7; read-out: IC50 (µM) MCF-7
[6] = Homo sapiens, range over (all or some of) HePG2, HCT-116, MCF-7, PC3, HeLa
[7] = range over (all or some of) HePG2, HCT-116, MCF-7, PC3, HeLa
[8] = Homo sapiens, HCT-116; read-out: IC50 (µM) HCT-116

IC50 (TNF-α) [µM]	melting point [°C]	IC50 (PC3 cell line; [2]) [µM]	IC50 (PDE4B) [µM]	IC50 (HePG2 cell line; [3]) [µM]	IC50 (HeLa cell line; [4]) [µM]	IC50 (COX-2) [µM]	IC50 (MCF-7 cell line; [5]) [µM]	IC50 [1, 6] [µM]	IC50 [1, 7] [µM]	IC50 (HCT-116 cell line; [8]) [µM]	Structure (SMILES)	IC50 (PC3 cell line; Homo sapiens, PC-3, read-out: IC50 (µM) PC3) [µM]	IC50 (HePG2 cell line; Homo sapiens, HepG2, read-out: IC50 (µM) HePG2) [µM]	IC50 (HeLa cell line; Homo sapiens, read-out: IC50 (µM) HeLa) [µM]	IC50 (MCF-7 cell line; Homo sapiens, MCF7, read-out: IC50 (µM) MCF-7) [µM]	IC50 ([1]; Homo sapiens) [µM]	IC50 (HCT-116 cell line; Homo sapiens, HCT-116, read-out: IC50 (µM) HCT-116) [µM]
2.01	253 to 255	9.18 ± 0.8	5.62	6.04 ± 0.5	7.24 ± 0.7	3.34	5.13 ± 0.3	4.38 to 22.9	4.38 to 9.18	4.38 ± 0.4	COc1ccc(C=C2CN(C)CCC2=O)cc1OC1CCCC1 [Compound 4a, 3-(3-(Cyclopentyloxy)-4-methoxybenzylidene)-1-methylpiperidin-4-one]						
17.7	249 to 251	14.3 ± 1.2	11.6	11 ± 1.1	8.56 ± 0.9	1.08	7.18 ± 0.8	4.38 to 22.9	7.18 to 14.3	9.48 ± 0.8	CCN1CCC(=O)C(=Cc2ccc(OC)c(OC3CCCC3)c2)C1 [Compound 4b, 3-(3-(Cyclopentyloxy)-4-methoxybenzylidene)-1-ethylpiperidin-4-one]						
6.72		11.5 ± 1.1	3.98	8.71 ± 0.7	5.86 ± 0.6	1.88	6.93 ± 0.5	5.86 to 20.1		7.66 ± 0.6	COc1ccc(-c2[nH]c(=S)[nH]c(=O)c2C#N)cc1OC1CCCC1 [Compound 13, 6-(3-(cyclopentyloxy)-4-methoxyphenyl)-4-oxo-2-thioxo-1,2,3,4-tetrahydropyrimidine-5-carbonitrile]						

Structure (SMILES)	IC50 (TNF-α) [µM]	melting point [°C]	IC50 (PC3 cell line; [2]) [µM]	IC50 (PDE4B) [µM]	IC50 (HePG2 cell line; [3]) [µM]	IC50 (HeLa cell line; [4]) [µM]	IC50 (COX-2) [µM]	IC50 (MCF-7 cell line; [5]) [µM]	IC50 [1, 6] [µM]	IC50 [1, 7] [µM]	IC50 (HCT-116 cell line; [8]) [µM]	IC50 (PC3 cell line; Homo sapiens, PC-3, read-out: IC50 (µM) PC3) [µM]	IC50 (HePG2 cell line; Homo sapiens, HepG2, read-out: IC50 (µM) HePG2) [µM]	IC50 (HeLa cell line; Homo sapiens, read-out: IC50 (µM) HeLa) [µM]	IC50 (MCF-7 cell line; Homo sapiens, MCF7, read-out: IC50 (µM) MCF-7) [µM]	IC50 ([1]; Homo sapiens) [µM]	IC50 (HCT-116 cell line; Homo sapiens, HCT-116, read-out: IC50 (µM) HCT-116) [µM]
Cc1ccc(-c2cc(C(F)(F)F)nn2-c2ccc(S(N)(=O)=O)cc2)cc1 [Celecoxib, celecoxib, reference compound]	6.44											30.7 ± 2.7	25.6 ± 2.3	36.1 ± 2.8	31.3 ± 2.5	25.6 to 36.1	29.5 ± 2.1
COc1ccc(-c2nc3c4ccccc4c4ccccc4c3n2-c2ccccc2)cc1OC1CCCC1 [Compound 7b, 2-(3-(Cyclopentyloxy)-4-methoxyphenyl)-1-phenyl-1H-phenanthro[9,10-d]imidazole]	13.9	295 to 297	22.9 ± 1.9	5.65	13.7 ± 1.2	17.2 ± 1.5	24	11.8 ± 1.3		11.8 to 22.9	19.7 ± 1.4						
